Measured values published in ChEMBL document CHEMBL1201862, “PubChem BioAssay data set” (2004).
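Where inhibition never reached the appropriate level, the endpoint shown equals the highest concentration tested. Otherwise, values were interpolated linearly from a five-concentration, 48-hour dose response in 96-well plates. GI50 marks 50% less growth.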 Calls of active or inactive are those of the source. Cut-off read from the data, not from the text of the source: active = GI50 up to about 1.1 µM and inactive = higher.

Key:
Test in all cases: growth of human tumour cells (NCI), 48 h
A549 = system: A549
CCRF-CEM = system: CCRF-CEM
DLD-1 = system: DLD-1
HCC 2998 = system: HCC 2998
HOP-62 = system: HOP-62
HT-29 = system: HT-29
IGROV-1 = system: IGROV-1
KM-20L2 = system: KM-20L2
NCI-H522 = system: NCI-H522
SK-MEL-2 = system: SK-MEL-2
SK-MEL-5 = system: SK-MEL-5
SK-OV-3 = system: SK-OV-3
SNB-19 = system: SNB-19
TK-10 = system: TK-10
A498 = system: A498
HOP-92 = system: HOP-92
BT-549 = system: BT-549
MDA-MB-231 = system: MDA-MB-231
MDA-N = system: MDA-N
T47D = system: T47D

Structure (SMILES)	GI50 (A549)	GI50 (CCRF-CEM)	GI50 (DLD-1)	GI50 (HCC 2998)	GI50 (HOP-62)	GI50 (HT-29)	GI50 (IGROV-1)	GI50 (KM-20L2)	GI50 (NCI-H522)	GI50 (SK-MEL-2)	GI50 (SK-MEL-5)	GI50 (SK-OV-3)	GI50 (SNB-19)	GI50 (TK-10)	GI50 (A498)	GI50 (HOP-92)	GI50 (BT-549)	GI50 (MDA-MB-231)	GI50 (MDA-N)	GI50 (T47D)
O=C(Cc1ccccc1)NN1C(=O)C(Cl)C1c1cc(Br)cc(Br)c1O (stereo unspecified)	15.9 µM (inactive)	3.05 µM (inactive)	8.81 µM (inactive)	13.8 µM (inactive)	14 µM (inactive)	21.6 µM (inactive)	13.1 µM (inactive)	24.7 µM (inactive)	3.8 µM (inactive)	15.1 µM (inactive)	13.6 µM (inactive)	15.1 µM (inactive)	8.34 µM (inactive)	17.8 µM (inactive)						
CC(=O)Nc1ccccc1Sc1ccccc1	> 100 µM (inactive)	> 100 µM (inactive)		> 100 µM (inactive)	> 100 µM (inactive)	> 100 µM (inactive)	> 100 µM (inactive)	> 100 µM (inactive)	36.6 µM (inactive)	> 100 µM (inactive)	> 100 µM (inactive)	> 100 µM (inactive)	> 100 µM (inactive)	> 100 µM (inactive)	> 100 µM (inactive)	69.8 µM (inactive)				
C#CC1(O)c2ccccc2C(=O)c2ccccc21	> 100 µM (inactive)	> 100 µM (inactive)		> 100 µM (inactive)	> 100 µM (inactive)	> 100 µM (inactive)	11.8 µM (inactive)	> 100 µM (inactive)	> 100 µM (inactive)	> 100 µM (inactive)			> 100 µM (inactive)	> 100 µM (inactive)	10.9 µM (inactive)	21.6 µM (inactive)				
COc1cccc2c(NNc3ccccc3)c3ccc([N+](=O)[O-])cc3nc12	24.2 µM (inactive)	12.5 µM (inactive)		32.7 µM (inactive)	60.4 µM (inactive)	23.6 µM (inactive)	21.7 µM (inactive)		24.7 µM (inactive)	25.8 µM (inactive)	37.6 µM (inactive)	53.6 µM (inactive)	> 100 µM (inactive)	21.3 µM (inactive)	43.5 µM (inactive)	26.4 µM (inactive)	12.1 µM (inactive)	43.6 µM (inactive)	33.1 µM (inactive)	36.4 µM (inactive)
O=[N+]([O-])c1nccn1CC(O)c1ccc(F)cc1 (stereo unspecified)	> 100 µM (inactive)	> 100 µM (inactive)			> 100 µM (inactive)	> 100 µM (inactive)	> 100 µM (inactive)	> 100 µM (inactive)	> 100 µM (inactive)	> 100 µM (inactive)	> 100 µM (inactive)	> 100 µM (inactive)	> 100 µM (inactive)	> 100 µM (inactive)	> 100 µM (inactive)	> 100 µM (inactive)				
Cn1cc(-c2ccc(CCOC3CCCCO3)cc2)c2c(C#N)cccc21 (stereo unspecified)	31 µM (inactive)	24.4 µM (inactive)		35.7 µM (inactive)	> 100 µM (inactive)	17 µM (inactive)	> 100 µM (inactive)		> 100 µM (inactive)	28.7 µM (inactive)	> 100 µM (inactive)	> 100 µM (inactive)	> 100 µM (inactive)	48.3 µM (inactive)	61.2 µM (inactive)	> 100 µM (inactive)	98.6 µM (inactive)	86.1 µM (inactive)	48 µM (inactive)	21.3 µM (inactive)
O=C(c1ccccc1)c1ccc(C(c2c(O)c3ccccc3oc2=O)c2c(O)c3ccccc3oc2=O)cc1	26.9 µM (inactive)	27.9 µM (inactive)		21 µM (inactive)	28.7 µM (inactive)	25.1 µM (inactive)	23.3 µM (inactive)		16.6 µM (inactive)	28.2 µM (inactive)	24.5 µM (inactive)	18.9 µM (inactive)	19.6 µM (inactive)	17.9 µM (inactive)	24.5 µM (inactive)	18.5 µM (inactive)	22.5 µM (inactive)	26.7 µM (inactive)	28.2 µM (inactive)	34.2 µM (inactive)
CCOC(=O)c1sc2nc(SC)nc(Nc3ccc(OC)c(OC)c3)c2c1N	5.28 µM (inactive)	1.3 µM (inactive)		60 µM (inactive)	6.04 µM (inactive)	78 µM (inactive)	> 100 µM (inactive)		5.79 µM (inactive)	19.7 µM (inactive)	3.61 µM (inactive)	12.9 µM (inactive)	18 µM (inactive)	6.73 µM (inactive)	4.76 µM (inactive)	9.89 µM (inactive)	17.7 µM (inactive)	3.78 µM (inactive)	> 100 µM (inactive)	6.08 µM (inactive)
CCCCOc1ccc(NC(=N)Nc2ccc(Cl)cc2)cc1	0.741 µM (active)	0.251 µM (active)		0.358 µM (active)	0.235 µM (active)	0.243 µM (active)	1.22 µM (inactive)		5.86 µM (inactive)	2.64 µM (inactive)	0.284 µM (active)	10.6 µM (inactive)	2.74 µM (inactive)	5.16 µM (inactive)	0.443 µM (active)	2.58 µM (inactive)	9.57 µM (inactive)	13.2 µM (inactive)	5.58 µM (inactive)	0.474 µM (active)
COC(=O)/C=C1/OC(c2ccc(C)cc2)=C(Cl)C1=O	20.1 µM (inactive)	3.26 µM (inactive)		18.9 µM (inactive)	19.9 µM (inactive)	12.9 µM (inactive)	16.5 µM (inactive)		9.4 µM (inactive)	16.7 µM (inactive)	14.5 µM (inactive)	24.2 µM (inactive)	22.2 µM (inactive)	20.5 µM (inactive)	17.9 µM (inactive)	15.2 µM (inactive)	17.7 µM (inactive)	16.9 µM (inactive)	16.4 µM (inactive)	15.3 µM (inactive)
[N-]=[N+]=CC(=O)COC(=O)c1ccccc1	74.1 µM (inactive)	> 100 µM (inactive)		> 100 µM (inactive)	> 100 µM (inactive)	> 100 µM (inactive)	> 100 µM (inactive)		> 100 µM (inactive)	> 100 µM (inactive)	> 100 µM (inactive)	> 100 µM (inactive)	> 100 µM (inactive)	> 100 µM (inactive)	> 100 µM (inactive)	78 µM (inactive)	> 100 µM (inactive)	> 100 µM (inactive)	> 100 µM (inactive)	> 100 µM (inactive)
CC(C)(O)[C@@H]1CCC(C)([C@H]2[C@@H](O)CC3(C)C4CC(OC5OC(CO)C(O)C(O)C5O)C5C(C)(C)[C@@H](OC6OCC(O)C(O)C6O)CC[C@@]56C[C@@]46CC[C@]23C)O1 (stereo partly specified)	> 100 µM (inactive)	> 100 µM (inactive)	> 100 µM (inactive)	> 100 µM (inactive)		> 100 µM (inactive)	> 100 µM (inactive)	> 100 µM (inactive)	> 100 µM (inactive)	> 100 µM (inactive)	> 100 µM (inactive)	> 100 µM (inactive)	> 100 µM (inactive)	> 100 µM (inactive)		> 100 µM (inactive)				
